Read-outs that look alike come from different tables or passages of the source.
How the values were obtained:
[1] = Unbound fractions in plasma and brain homogenates by equilibrium dialysis; format: in vitro ADME; conditions: for fraction unbound: equilibrium dialysis
Excerpt: Without wishing to be bound by any particular theory, it is believed that it is possible (although uncommon) for a BBB-permeable compound to have a very low B/P ratio if the fraction of free, unbound drug is much greater in the […]. More specifically, a drug that is freely diffusible across the BBB will at equilibrium have a free drug B/P ratio (B/Pfree)=1, where B/Pfree=B/P×fu(brain))/fu(plasma) (Maurer, et al., 2005, Drug Metab Dispos. 33:175-181; Kalvasset al., 2007, Drug Metab Dispos. 35:660-666) and fti represents unbound drug fractions. […] To ensure that the low B/P ratios obtained with the TP antagonists of Table 1 were truly reflective of poor BBB permeability, the unbound fractions in plasma and brain homogenates were measured using established equilibrium dialysis methods (Maurer, et al., 2005, Drug Metab Dispos. 33:175-181; Kalvasset al., 2007, Drug Metab Dispos. 35:660-666; Friden, et al., 2007, Drug Metab Dispos. 35:1711-1719). […] This is further illustrated by comparing the calculated B/Pfree ratios (Table 1), which are <<1. Because the existing repertoire of TP receptor antagonists share common structural features, including free carboxylate moieties, it is highly unlikely that any of these existing compounds would be sufficiently brain-penetrant to be potential AD therapeutics.

[2] = S18886 brain and plasma levels after administration to mice in drinking water; format: in vivo
Description: Brain and plasma drug levels of S18886 were measured after administration to mice in drinking water, as previously described (Shineman, et al., 2008, J. Neurosci 28:4785-4794). Mice have 20-30 separate drinking bouts over the course of the day (Gannon, et al., 1992, Physiol Behav. 51:515-521), albeit with much greater water consumption during the night. […] In fact, extended exposure to excessively high blood levels of a TP receptor antagonist could increase the risk of bleeding complications due to compromise of platelet function, as it is known that TP receptor knockout mice and TxA2 synthase-deficient mice have prolonged clotting times (Thomas, et al., 1998, J Clin Invest 102:1994-2001; Yu, et al., 2004, Blood 104:135-142). Furthermore, inactivating mutations in the TP receptor have been linked to a dominantly inherited bleeding disorder in humans (Hirata, et al., 1994, J Clin Invest 94:1662-1667).

Tg2576 mice = conditions: cited from earlier work

For `Cc1ccc2c(c1CCC(=O)O)CC[C@@H](NS(=O)(=O)c1ccc(Cl)cc1)C2` [Compound S18886], the fraction unbound ([1]; brain homogenate, read-out: fu(brain) (fraction unbound)) was 0.044, the plasma/brain unbound fraction ratio ([1]; plasma and brain homogenate, ratio of unbound fractions plasma/brain, read-out: fu(pl)/fu(br)) was 0.59 and the fraction unbound ([1]; plasma, read-out: fu(plasma) (fraction unbound)) was 0.026. The “free drug in plasma relative to brain” value ([2]; drinking water dosing) was greater than 10 ×, the “calculated free drug concentration in brain as % of Kd at mouse TP receptor” value ([2]; drinking water dosing, daylight phase) was roughly 30% and the concentration at 1 day ([2]; mouse, brain, oral, dosing by drinking water, day 1, daylight phase, read-out: Free S18886 brain level) was 0.093 nM. The concentration at 2 day ([2]; mouse, brain, oral, dosing by drinking water, day 2, daylight phase, read-out: Free S18886 brain level) was 0.117 nM, the Aβ levels (Tg2576 mice; Tg2576 mice, drinking water) was “reduced Aβ levels” and the plaque load (Tg2576 mice; long-term treatment, relative to untreated mice) was “significant diminution of plaque load”.

Source: patent US20130190370A1, “Novel Tetrahydronaphalene Antagonists to the Thromboxane A2 (TP) Receptor” (The Trustees of the University of Pennsylvania, priority 2010, published 2013)
